Data taken from PMC6968685 (Journal of Enzyme Inhibition and Medicinal Chemistry, 2020).

Columns and labels:
[1] = test system: P. falciparum CQ-resistant strain W2; assay: In vitro antiplasmodial activity, SYBR Green I fluorescence-based method, strain W2; format: cell-based; conditions: for IC50: Plasmodium falciparum, chloroquine-resistant strain W2, 48 h incubation, read-out: P. falciparum strains IC50 values, W2; for Selectivity index HepG2/W2: SI = CC50 HepG2 / IC50 P. falciparum W2
Procedure: (§1) The in vitro antiplasmodial activities were tested over concentrations ranging from […] against culture-adapted P. falciparum reference strains 3D7 and W2. […] The parasites were cultivated in RPMI medium (Sigma-Aldrich, Lyon, France) supplemented with 0.5% Albumax I (Life Technologies Corporation, Paisley, UK), hypoxanthine (Sigma-Aldrich), and gentamicin (Sigma-Aldrich) with human erythrocytes and were incubated at 37 °C in a candle jar, as described previously[43] .The P. falciparum drug susceptibility test was carried out in 96-well flat-bottom sterile plates in a final volume of 250 µl. After 48 h incubation period with the drugs, quantities of DNA in treated and control cultures of parasites in human erythrocytes were quantified using the SYBR Green I (Sigma-Aldrich) fluorescence-based method[44]^,[45]. Briefly, after incubation, plates were frozen at −20 °C until use. Plates were then thawed for 2 h at room temperature, and 100 µl of each homogenised culture was transferred to a well of a 96-well flat-bottom sterile black plate (Nunc, Inc., Rochester, NY) that contained 100 µl of the SYBR Green I lysis buffer (2xSYBR Green, 20 mM Tris base pH 7.5, 5 mM EDTA, 0.008% w/v saponin, 0.08% w/v Triton X-100). […] Plates were incubated for 1 h at room temperature and then read on a fluorescence plate reader (Tecan, Grödig, Austria) using excitation and emission wavelengths of 485 and 535 nm, respectively. IC50 values were calculated by non-linear regression analysis of data from dose-response curves, using TableCurve 2D version 5.0 software (Systat Software, San Jose, CA). IC50 values are reported as means calculated from three independent experiments.

[2] = test system: P. falciparum CQ-sensitive strain 3D7; assay: In vitro antiplasmodial activity, SYBR Green I fluorescence-based method, strain 3D7; format: cell-based; conditions: for IC50: Plasmodium falciparum, chloroquine-sensitive strain 3D7, 48 h incubation, read-out: P. falciparum strains IC50 values, 3D7; for Selectivity index HepG2/3D7: SI = CC50 HepG2 / IC50 P. falciparum 3D7
Procedure: as §1

[3] = test system: L. donovani (MHOM/IN/00/DEVI) promastigotes; assay: In vitro antileishmanial activity, MTT assay on promastigotes; format: cell-based; conditions: Leishmania donovani, 72 h incubation, ≥10 = no activity noted at the highest concentration tested
Procedure: L. donovani (MHOM/IN/00/DEVI) used in this study was provided by the CNR Leishmania (Montpellier, France). The effects of the tested compounds on the growth of L. donovani (MHOM/IN/00/DEVI) promastigotes were assessed by MTT assay. Briefly, promastigotes in log-phase in Schneider’s medium supplemented with 20% foetal calf serum (FCS), 2 mM L-glutamine and antibiotics (100 U/ml penicillin and 100 µg/ml streptomycin), were incubated at an average density of 10^6 parasites/ml in sterile 96-well plates with various concentrations of compounds dissolved in DMSO (final concentration less than 0.5% v/v), in duplicate. Appropriate controls treated with DMSO and amphotericin B (reference drug purchased from Sigma-Aldrich) were added to each set of experiments. After 72 h incubation period at 27 °C, parasite metabolic activity was determined. Each well was microscopically examined for precipitate formation. To each well was added 20 µl of 5 mg/ml MTT [3–(4,5-dimethylthiazol-2-yl)-2,5-diphenyltetrazolium bromide)] solution followed by 4 h incubation time. The enzyme reaction was stopped by addition of 100 µl of 50% isopropanol/10% sodium dodecyl sulfate. Plates were vigorously shaken (300 rpm) for 10 min, and the absorbance was measured at 570 nm in a BIO-TEK ELx808 Absorbance Microplate Reader. […] IC50 of the parasite’s growth (half maximal inhibitory concentration or IC50 values) were then calculated from the obtained experimental results using a previously described regression programme.

[4] = test system: T. brucei brucei AnTat 1.9; assay: In vitro antitrypanosomal activity, Alamar Blue assay; format: cell-based; conditions: for Selectivity index HepG2/Tryp.: SI = CC50 HepG2 / IC50 Trypanosoma brucei brucei; for IC50: Trypanosoma brucei, slender bloodstream trypomastigotes, AnTat 1.9 strain, read-out: Trypanosoma brucei brucei IC50 values, Trypanos Antat 1.9
Procedure: The effects of the tested compounds on the growth of T. brucei brucei were assessed using an Alamar Blue® assay described by Räz et al.[49] T. brucei brucei AnTat 1.9 (IMTA, Antwerpen, Belgium) was cultured in MEM with Earle’s salts, supplemented according to the protocol of Baltz et al.[50] with the following modifications: 0.5 mM mercaptoethanol (Sigma Aldrich), 1.5 mM L-cysteine (Sigma Aldrich), 0.05 mM bathocuproine sulphate (Sigma Aldrich), and 20% heat-inactivated horse serum (Gibco, France) at 37 °C and 5% CO2. Samples were incubated at an average density of 2000 parasites/well in sterile 96-wells plates (Fisher, France) with various concentrations of compounds dissolved in 0.9% NaCl. All doses were tested in duplicate. Appropriate controls treated with solvents 0.9% NaCl or DMSO or with suramin, pentamidine, eflornithine, and fexinidazole (reference drugs purchased from Sigma Aldrich and Fluorochem, UK) were added to each set of experiments. After 69 h incubation period at 37 °C, 10 µl of the viability marker Alamar Blue (Fisher) was added to each well, and the plates were incubated for 5 h. The plates were read in a PerkinElmer ENSPIRE (Germany) microplate reader using an excitation wavelength of 530 nm and an emission wavelength of 590 nm. […] IC50 values were calculated using a nonlinear regression analysis of dose-response curves performed using GraphPad Prism software (La Jolla, CA). IC50 values were calculated from three independent experiments.

[5] = Cytotoxicity evaluation, MTT; format: cell-based, human; conditions: human
Procedure: These cells are a commonly used human hepatocarcinoma-derived cell line that has characteristics similar to those of primary hepatocytes. These cells express many hepatocyte-specific metabolic enzymes, thus enabling the cytotoxicity of tested product metabolites to be evaluated. […] Duplicate assays were performed for each sample. Each well was microscopically examined for precipitate formation before the medium was aspirated from the wells. After aspiration, 100 µl of MTT solution (0.5 mg/ml in medium without FCS) were then added to each well. […] The MTT solution was removed, and DMSO (100 µl) was added to dissolve the resulting blue formazan crystals. Plates were shaken vigorously (300 rpm) for 5 min. The absorbance was measured at 570 nm with 630 nm as reference wavelength in a BIO-TEK ELx808 Absorbance Microplate Reader. DMSO was used as blank and doxorubicin (Sigma Aldrich) as positive control. Cell viability was calculated as percentage of control (cells incubated without compound). The CC50 was determined from the dose-response curve using the TableCurve 2D version 5.0 software (Systat Software, San Jose, CA)

In the case of `COc1ccc2nc(-c3ccc(CNCCCCN(C)C)cc3)cc(-c3ccc(CNCCCCN(C)C)cc3)c2c1` [Compound 1i, 6-Methoxy-2,4-bis{4-[(4-dimethylaminobutyl)aminomethyl]phenyl}quinoline], the IC50 [1] is reported as 7920 ± 640 nM, the “Selectivity index HepG2/W2” value [1] is reported as 0.45 and the IC50 [2] is reported as 3090 ± 380 nM. For the same molecule, the “Selectivity index HepG2/3D7” value [2] was 1.16, the IC50 [3] was at least 10000 nM and the “Selectivity index HepG2/Tryp.” value [4] was 5.34. For the same molecule, the IC50 [4] was 670 ± 91 nM and the CC50 at 72 h [5] was 3580 ± 300 nM.
With `COc1ccc2nc(-c3ccc(CNCCCN(C)C)cc3)cc(-c3ccc(CNCCCN(C)C)cc3)c2c1` [Compound 1j, 6-Methoxy-2,4-bis{4-[(3-dimethylaminopropyl)aminomethyl]phenyl}quinoline] the IC50 [1] was 4210 ± 310 nM, the “Selectivity index HepG2/W2” value [1] was 0.59 and the IC50 [2] was 2650 ± 180 nM. For the same molecule, the “Selectivity index HepG2/3D7” value [2] was 0.94, the IC50 [3] was at least 10000 nM and the “Selectivity index HepG2/Tryp.” value [4] was 4.03. For the same molecule, the IC50 [4] was 620 ± 70 nM and the CC50 at 72 h [5] was 2500 ± 200 nM.
With `COc1ccc2nc(-c3ccc(CNCCCCN4CCN(C)CC4)cc3)cc(-c3ccc(CNCCCCN4CCN(C)CC4)cc3)c2c1` [Compound 1k, 6-Methoxy-2,4-bis{4-[(4–(4-methylpiperazin-1-yl)butyl)aminomethyl]phenyl}quinoline] the IC50 [1] was 4100 ± 540 nM, the “Selectivity index HepG2/W2” value [1] was 1.50 and the IC50 [2] was 2590 ± 200 nM. The “Selectivity index HepG2/3D7” value [2] was 2.38, the IC50 [3] was at least 10000 nM and the “Selectivity index HepG2/Tryp.” value [4] was 6.28. The IC50 [4] was 980 ± 118 nM and the CC50 at 72 h [5] was 6160 ± 400 nM.
With `COc1ccc2nc(-c3ccc(CNCCCN4CCN(C)CC4)cc3)cc(-c3ccc(CNCCCN4CCN(C)CC4)cc3)c2c1` [Compound 1l, 6-Methoxy-2,4-bis{4-[(3–(4-methylpiperazin-1-yl)propyl)aminomethyl]phenyl}quinoline] the IC50 [1] was 4510 ± 710 nM, the “Selectivity index HepG2/W2” value [1] was 0.23 and the IC50 [2] was 1800 ± 200 nM. For the same molecule, the “Selectivity index HepG2/3D7” value [2] was 0.57, the IC50 [3] was at least 10000 nM and the “Selectivity index HepG2/Tryp.” value [4] was 0.66. For the same molecule, the IC50 [4] was 1540 ± 164 nM and the CC50 at 72 h [5] was 1020 ± 100 nM.
For `COc1ccc2c(-c3ccc(CNCCCCN(C)C)cc3)cc(-c3ccc(CNCCCCN(C)C)cc3)nc2c1` [Compound 1m, 7-Methoxy-2,4-bis{4-[(4-dimethylaminobutyl)aminomethyl]phenyl}quinoline], the IC50 [1] was over 40000 nM, the IC50 [2] was 8980 ± 360 nM and the “Selectivity index HepG2/3D7” value [2] was 0.60. For the same molecule, the IC50 [3] was at least 10000 nM, the “Selectivity index HepG2/Tryp.” value [4] was 5.00 and the IC50 [4] was 1080 ± 68 nM. It also gave a CC50 at 72 h [5] of 5400 ± 300 nM.
For `COc1ccc2c(-c3ccc(CNCCCN(C)C)cc3)cc(-c3ccc(CNCCCN(C)C)cc3)nc2c1` [Compound 1n, 7-Methoxy-2,4-bis{4-[(3-dimethylaminopropyl)aminomethyl]phenyl}quinoline], the IC50 [1] was 1690 ± 240 nM, the “Selectivity index HepG2/W2” value [1] was 0.28 and the IC50 [2] was 3180 ± 360 nM. For the same molecule, the “Selectivity index HepG2/3D7” value [2] was 0.15, the IC50 [3] was at least 10000 nM and the “Selectivity index HepG2/Tryp.” value [4] was 0.40. The IC50 [4] was 1200 ± 296 nM and the CC50 at 72 h [5] was 480 ± 100 nM.
For `COc1ccc2c(-c3ccc(CNCCCCN4CCN(C)CC4)cc3)cc(-c3ccc(CNCCCCN4CCN(C)CC4)cc3)nc2c1` [Compound 1o, 7-Methoxy-2,4-bis{4-[(4–(4-methylpiperazin-1-yl)butyl)aminomethyl]phenyl}quinoline], the IC50 [1] was 2260 ± 480 nM, the “Selectivity index HepG2/W2” value [1] was 1.47 and the IC50 [2] was 2410 ± 80 nM. The “Selectivity index HepG2/3D7” value [2] was 1.38, the IC50 [3] was at least 10000 nM and the “Selectivity index HepG2/Tryp.” value [4] was 2.96. The IC50 [4] was 1120 ± 118 nM and the CC50 at 72 h [5] was 3320 ± 500 nM.
For `COc1ccc2c(-c3ccc(CNCCCN4CCN(C)CC4)cc3)cc(-c3ccc(CNCCCN4CCN(C)CC4)cc3)nc2c1` [Compound 1p, 7-Methoxy-2,4-bis{4-[(3–(4-methylpiperazin-1-yl)propyl)aminomethyl]phenyl}quinoline], the IC50 [1] was 2730 ± 760 nM, the “Selectivity index HepG2/W2” value [1] was 2.36 and the IC50 [2] was 4340 ± 500 nM. For the same molecule, the “Selectivity index HepG2/3D7” value [2] was 1.48, the IC50 [3] was at least 10000 nM and the “Selectivity index HepG2/Tryp.” value [4] was 6.37. The IC50 [4] was 1010 ± 135 nM and the CC50 at 72 h [5] was 6440 ± 600 nM.
For `CN(C)CCCCNCc1ccc(-c2cc3ccccc3c(-c3ccc(CNCCCCN(C)C)cc3)n2)cc1` [Compound 2a, 1,3-Bis{4-[(4-dimethylaminobutyl)aminomethyl]phenyl}isoquinoline], the IC50 [1] was 6230 ± 800 nM, the “Selectivity index HepG2/W2” value [1] was 1.33 and the IC50 [2] was 1740 ± 360 nM. The “Selectivity index HepG2/3D7” value [2] was 4.78, the IC50 [3] was at least 10000 nM and the “Selectivity index HepG2/Tryp.” value [4] was 12.98. The IC50 [4] was 640 ± 163 nM and the CC50 at 72 h [5] was 8310 ± 1000 nM.
In the case of `CN1CCN(CCCCNCc2ccc(-c3cc4ccccc4c(-c4ccc(CNCCCCN5CCN(C)CC5)cc4)n3)cc2)CC1` [Compound 2c, 1,3-Bis{4-[(4–(4-methylpiperazin-1-yl)butyl)aminomethyl]phenyl}isoquinoline], the IC50 [1] is reported as 4420 ± 560 nM, the “Selectivity index HepG2/W2” value [1] is reported as 1.13 and the IC50 [2] is reported as 1960 ± 580 nM. For the same molecule, the “Selectivity index HepG2/3D7” value [2] was 2.54, the IC50 [3] was at least 10000 nM and the “Selectivity index HepG2/Tryp.” value [4] was 4.53. The IC50 [4] was 1100 ± 318 nM and the CC50 at 72 h [5] was 4980 ± 500 nM.
In the case of `CN1CCN(CCCNCc2cccc(-c3nc(-c4cccc(CNCCCN5CCN(C)CC5)c4)c4ccccc4n3)c2)CC1` [Compound 3t, 2,4-Bis{3-[(3–(4-methylpiperazin-1-yl)propyl)aminomethyl]phenyl}quinazoline], the IC50 [2] is reported as 2240 ± 435 nM, the “Selectivity index HepG2/3D7” value [2] is reported as 13.20 and the IC50 [3] is reported as at least 10000 nM. For the same molecule, the “Selectivity index HepG2/Tryp.” value [4] was 14.42, the IC50 [4] was 2050 ± 535 nM and the CC50 at 72 h [5] was 29600 ± 2200 nM.
With `c1cc(CNCCCN2CCOCC2)cc(-c2nc(-c3cccc(CNCCCN4CCOCC4)c3)c3ccccc3n2)c1` [Compound 3u, 2,4-Bis{3-[(3-morpholinopropyl)aminomethyl]phenyl}quinazoline] the IC50 [2] was 430 ± 142 nM, the “Selectivity index HepG2/3D7” value [2] was 6.14 and the IC50 [3] was at least 10000 nM. For the same molecule, the “Selectivity index HepG2/Tryp.” value [4] was 3.67, the IC50 [4] was 720 ± 70 nM and the CC50 at 72 h [5] was 2640 ± 200 nM.
